Legend:
[1] = Sensory evaluation of beverages by expert panelists; format: in vivo; details: 480 ppm steviol glycosides in finished beverage; at least 5 expert panelists, blind; carbonated beverages tasted at 4° C.
Protocol: Steviol glycosides with high purity (>95%) namely Rebaudioside A, B, D, M, Glycosylated steviol glycoside (GSG) were evaluated in acidified citric buffer, a lemon lime and a cola carbonated beverage at concentration of 480 ppm in finished beverage.
The beverages were evaluated blindly by at least 5 expert panelists who work and taste steviol glycosides sweetened beverages daily. Samples were coded and randomly presented to the panelists. Panelists were instructed to eat an unsalted cracker and rinse the mouth with water before and in between samples. The maximum samples for each session was set at 5 samples to avoid fatigue. For each sample, panelists were instructed to take 3 sips, then write down their evaluation comments. Mock beverages were tasted at ambient temperature while carbonated beverages (diet lemon lime and cola) were tasted at 4° C.

[2] = Solubility at syrup stage (lemon lime and cola beverage syrup, 5.5+1); format: physicochemical
Protocol: The ingredients were dissolved in filtered water to constitute a syrup, then the final beverage was made by weighing the appropriate syrup amount and adding carbonated water using a ratio of 1-part syrup+5.5 parts carbonated water. Final beverages were filled in 300 ml glass bottles then aged for 3 days at 35° C. before they were cooled and served cold (4° C.). The control with Reb-M was made by heating water up to around 47° C. then dissolving Reb-M. After complete dissolution, the concentrated Reb-M solution was cooled down to ambient temperature before the rest of the ingredients were added.

[3] = cited from earlier work

Row | Compound | Panelist Rating (1 = most preferred, 6 = least preferred) [1] | solubility at syrup stage [2] [%] | aqueous solubility [3]
1 | C=C1C[C@@]23CC[C@H]4[C@@](C)(CCC[C@@]4(C)C(=O)O[C@@H]4O[C@H](CO)[C@@H](O)[C@H](O[C@@H]5O[C@H](CO)[C@@H](O)[C@H](O)[C@H]5O)[C@H]4O[C@@H]4O[C@H](CO)[C@@H](O)[C@H](O)[C@H]4O)[C@@H]2CC[C@]1(O[C@@H]1O[C@H](CO)[C@@H](O)[C@H](O[C@@H]2O[C@H](CO)[C@@H](O)[C@H](O)[C@H]2O)[C@H]1O[C@@H]1O[C@H](CO)[C@@H](O)[C@H](O)[C@H]1O)C3 [Reb-M, Rebaudioside M] | 2 | 0.1 | 
2 | C=C1C[C@@]23CC[C@H]4[C@@](C)(CCC[C@@]4(C)C(=O)O[C@@H]4O[C@H](CO)[C@@H](O)[C@H](O)[C@H]4O)[C@@H]2CC[C@]1(O[C@@H]1O[C@H](CO)[C@@H](O)[C@H](O[C@@H]2O[C@H](CO)[C@@H](O)[C@H](O)[C@H]2O)[C@H]1O[C@@H]1O[C@H](CO)[C@@H](O)[C@H](O)[C@H]1O)C3 [Rebaudioside A] |  |  | about 0.8 wt %

From patent US20210251269A1, “Beverages Comprising Highly Soluble Steviol Glycoside Blend and Glucosylated Steviol Glycosides” (The Coca-Cola Company, priority 2018, published 2021)
